In patent US9937230B2, “Ophthalmic uses of toxin-based therapeutic peptides and pharmaceutical compositions thereof” (Kineta One, LLC, priority 2013, dated 2018):
“Also recorded” adds a separate entry of the source.

What was measured:
[1] = test system: human whole blood stimulated with thapsigargin; assay: Suppression of thapsigargin-stimulated inflammatory cytokine production in human whole blood; format: cell-based; settings: FIG. 1
Description: (§1) This Example explores the ability of pharmaceutical compositions including toxin-based therapeutic peptides disclosed herein to reduce pro-inflammatory cytokine secretion caused by thapsigargin (Sigma-Aldrich, St. Louis, Mo., USA). Thapsigargin stimulates proinflammatory cytokine release by inhibiting the Ca2+ ion pump proteins of intracellular membranes in the sarcoplasmic reticulum and endoplasmic reticulum of microsomes. This inhibition results in a rapid release of Ca2+ stores and subsequent activation of plasma membrane calcium channels.
(§2) Preparation of primary blood cells. Whole blood and peripheral blood mononuclear cells (PBMCs) were used to test the suitability of an ShK-based therapeutic peptide as disclosed herein for treating a subject with an ophthalmic condition including dry eye. Whole blood was directly aliquoted to cell culture for experimental assays without any additional processing.
(§3) Treatment of primary blood cells. ShK-186 was serially diluted in cRPMI to 4× final concentration working stock. 50 μL of working stock was added to 6 wells of a 96-well cell culture plate per concentration of ShK-based peptide. 50 μL of cRPMI without ShK-based peptide was used as control treatment in positive control (no ShK-based peptide, thapsigargin stimulus) and in negative control (no ShK-based peptide, no thapsigargin stimulus) wells. 100 μL whole blood or 200,000 PBMCs in complete RPMI was added to each well of the 96-well cell culture plate. Cells with ShK-based peptide or media control were incubated at 37° C. and 5% CO2 for one hour. After one hour, 50 μL of 40 uM thapsigargin stimulus was added to all wells except for negative control wells which received 50 μL 0.4% DMSO to 0.1% final concentration. Cells were incubated for 48 hours.
(§4) Analysis of ShK-based peptide treated and thapsigargin stimulated cells. 48 hours after stimulation by thapsigargin, 96-well plates were centrifuged at 2000 RPM for 5 minutes. The supernatant was carefully transferred to a sterile 96-well plate for sample analysis. Cytokines were detected using specific antibodies conjugated to magnetic beads and a secondary antibody that reacts with Streptavidin/Phycoerythrin to produce a fluorescent signal. The bound beads were detected and quantified using the Magpix instrument (Luminex Corp., Austin, Tex., USA), although similar techniques as are known in the art may be used to measure protein production, such as for example an ELISA, using methods of detection including fluorescent and colorimetric methods.

[2] = test system: human peripheral blood mononuclear cells (PBMCs) stimulated with thapsigargin; assay: Suppression of thapsigargin-stimulated inflammatory cytokine production in human PBMCs; format: cell-based; settings: FIG. 2
Description: as §1, §2
PBMCs were isolated from donor blood by density gradient centrifugation as follows. Blood was collected in collection tubes containing sodium heparin as an anticoagulant and a cell separation medium including a polyester gel and a density gradient liquid (BD Vacutainer CPT). The samples were centrifuged at 1500 RCF for 20 minutes at room temperature. The cell layer containing mononuclear cells and platelets lies just below the plasma layer and was collected into a separate 15 mL conical tube using a Pasteur Pipette. The cells were washed twice with PBS and pelleted by centrifugation to remove the supernatant. The purified PBMCs were resuspended in complete RPMI (cRPMI) cell culture media and plated to the appropriate density for the assay.
as §3, §4

[3] = test system: unstimulated or activated T cells or macrophages from dry-eye or uveitis patients; assay: Ex vivo cytokine expression in T cells or macrophages from dry eye or uveitis patients; format: cell-based, human; settings: ex vivo addition of ShK-186, intracellular staining/flow cytometry or multiplexing ELISA
Description: (§5) In order to carry out functional assays, PBMCs from uveitis or dry eye patients and healthy controls are isolated. In the first phase of the example, the cells are either tested shortly after […] without ex vivo stimulation or activated ex vivo with anti-CD3 and anti-CD28 antibodies or mitogens and then subjected to immunostaining and multicolor flow cytometry to study expression levels of Kv1.3 channel on the surface of TEM within the CD4 and CD8+ T-cell subsets. Cells isolated from patients are expected to be high in expression of Kv1.3 without stimulation ex vivo, but this expression could increase upon activation ex vivo. […] Cytokines including IFN-γ, IL-2, IL-4, IL-10, IL-17, IL-21, and IL-22, perforin, and granzyme B are detected by intracellular staining and flow cytometry in resting or activated cells in the presence or absence of toxin-based therapeutic peptide. Additionally, they can be quantitated by an assay such as multiplexing ELISA of collected supernatants. […] This reduction can be measured by quantification of [^3H] thymidine incorporation or the fluorescent dye CFSE, among other standard immunological methods.

[4] = test system: T cells or macrophages from dry-eye or uveitis patients; assay: Ex vivo proliferation of T cells or macrophages during ex vivo activation; format: cell-based, human; settings: [3H] thymidine incorporation or CFSE
Description: as §5

[5] = Local (eye) and systemic (plasma) drug levels after topical ocular administration, Sprague-Dawley rats, ELISA; format: in vivo, rat
Procedure: Three female 6-8 week old Sprague-Dawley rats (Indianapolis, Ind., USA) were dosed three times per day with topically administered 10 μL of P6N (sodium phosphate (10 mM), sodium chloride (0.8%), and Polysorbate 20 (0.05%) at pH 6.0) on the left eye (LE) and 10 μL of 0.5% ShK-186 in P6N on the right eye (RE) for 21 days. Blood was collected at 3, 7, 12, 14, 17, and 21 days and processed to plasma. […] ShK-186 levels in collected samples were measured using a standard direct ELISA method.

[6] = test system: rat model of experimental autoimmune anterior uveitis (EAAU); assay: Melanin associated antigen (MAA) induced experimental autoimmune anterior uveitis (EAAU) model; format: in vivo
Description: One model used to evaluate the therapeutic potential of ShK-186 in autoimmune eye diseases such as uveitis was the melanin associated antigen (MAA) induced experimental autoimmune anterior uveitis (EAAU). In this model, male Lewis rats 5-10 week old (Charles River) are immunized with MAA emulsified in complete Freund's adjuvant (CFA) subcutaneously and also receive a single intraperitoneal injection of pertussis toxin (0.2 to 1 mcg/animal). Symptoms of disease begin to appear by day 10 and peak by day 18 post immunization. The animals typically recover by day 25.
Preparation of the MAA. MAA was prepared following the procedure outlined by Simpsom et al., Eye 11, 206-208, (1997) with some modifications. The iris and ciliary body structure were dissected from 25 fresh pigmented cow eyes. The tissue was cut into small pieces and then homogenized in cold PBS. The homogenate was spun at 4000 g for 10 minutes, washed three times with PBS and then put through a detergent extraction with 2% Triton X-100, rotating for 3 hours at room temperature. The resulting material was again spun and washed three times with PBS and subject to another detergent extraction this time using 2% SDS, rotating for 3 hours at 37° C. This material was washed three times with PBS followed by three washes with H2O and a final wash with 70% ethanol. The MAA pellet was placed under a vacuum for approximately 15 min, resulting in dried antigen material stored frozen at −20° C.
Preparation of MAA:CFA emulsions. For the emulsion used for the experiment whose results are shown in FIG. 4, 50 milligrams of MAA were resuspended in 3.8 mL of PBS, and after vortexing briefly the suspension, was sonicated for 30 seconds three times incubating on ice for 30 seconds in between. This slurry was passed through a 100 μm cell strainer, thicker material was pressed through using a syringe plunger. The protein content of the suspension was determined to be 3.27 mg/mL using a commercially available BCA kit (Pierce 23225), and was stored frozen at −20° C. until use. On the day of immunization (day 0), the stock MAA was thawed at room temperature and vortexed briefly before a working dilution of 600 μg/mL was made. This solution was then mixed drop wise 1:1 with CFA while vortexing, for a final antigen concentration of 300 μg/mL (or 30 μg per animal). Emulsions were allowed to vortex an additional 5 minutes before being loaded into syringes and passed through an 18 G emulsifying bridge until very thick. Emulsions were injected the same day, 50 μL subcutaneous to each footpad, 100 μL total per animal, according to group. FIGS. 4A-D show the pathology associated with this disease model and the effects of ShK-186 topical administration on the occurrence and severity of disease.
Eyes were given individual scores based on pupil function (miosis), iris structure, presence of cells in the anterior chamber, and presence of protein in the anterior chamber (flare). Scores were then converted into a composite clinical score for each day.
For this analysis, sections of eyes previously fixed in 10% formalin were scored for iris and ciliary body structure and the degree of inflammatory cell infiltration to the stroma of the iris and/or ciliary body and anterior chamber according to disease parameters outlined by Kim et al., supra (1997); this was done by an independent veterinary pathologist. In FIG. 4C (1.) a control healthy eye (10×) is shown; (2.) & (4.) show the eye from an animal treated with vehicle that was scored a 2 (10×, 40×); (3.) & (5.) show the eye from an animal treated three times daily with 0.1% ShK-186 for 8 days followed by 1% ShK-186 for 10 days which was given a histopathology score of 0 (10×, 40×).
Clinical observations were made of each animal using a slit lamp on day 13 post induction of EAAU by immunization with an adjuvanted MAA emulsion. […]

[7] = whole blood treated with ShK-186 one hour prior to thapsigargin, supernatant 48 hours after stimulation
[8] = whole blood, thapsigargin stimulation
[9] = PBMCs treated with ShK-186 one hour prior to thapsigargin, supernatant 48 hours after stimulation
[10] = PBMCs, thapsigargin stimulation
[11] = day 18 post immunization, 0.1% then 1% ShK-186 topically

Substance: (L-PhosphoTyr)-AEEAc-RSCIDTIPKSRCTAFQCKHSMKYRLSFCRKTCGTC-amide [ShK-186]
- suppression of IFN-γ level [1, 7]: dose-dependent manner; also recorded: suppressed
- suppression of IL-2 level [1, 7]: dose-dependent manner; also recorded: suppressed
- suppression of IL-4 level [1, 7]: dose-dependent manner; also recorded: suppressed
- suppression of IL-17 level [1, 7]: dose-dependent manner; also recorded: suppressed
- IC50, IFN-γ suppression [1, 8]: picomolar range
- IC50, IL-2 suppression [1, 8]: picomolar range
- IC50, IL-4 suppression [1, 8]: picomolar range
- IC50, IL-17 suppression [1, 8]: picomolar range
- suppression of IFN-γ level [2, 9]: suppressed; also recorded: dose-dependent manner
- suppression of IL-2 level [2, 9]: suppressed; also recorded: dose-dependent manner
- suppression of IL-4 level [2, 9]: suppressed; also recorded: dose-dependent manner
- suppression of IL-17 level [2, 9]: suppressed; also recorded: dose-dependent manner
- IC50, IFN-γ suppression [2, 10]: picomolar range
- IC50, IL-2 suppression [2, 10]: picomolar range
- IC50, IL-4 suppression [2, 10]: picomolar range
- IC50, IL-17 suppression [2, 10]: picomolar range
- expression of cytokines (IFN-γ, IL-2, IL-4, IL-10, IL-17, IL-21, IL-22, perforin, granzyme B) [3]: significantly reduces
- ex vivo proliferation of T cells or macrophages [4]: significantly reduces
- ShK-186 in plasma (systemic exposure) ([5]; 0.5% ShK-186 topically to right eye three times per day for 21 days): no detectable and not
- ShK-186 concentration in aqueous fluid of the treated right eye (RE) ([5]; 10 μL of 0.5% ShK-186 in P6N topically three times per day for 21 days, samples at 21 days): significant concentrations
- ShK-186 in samples from the untreated left eye (LE) ([5]; right eye dosed 0.5% ShK-186 three times per day for 21 days, left eye vehicle): no detectable
- gross pathology ([6]; ShK-186 topical administration versus vehicle (P6N), FIG. 4B): reduced
- composite clinical score of animal 4-8 ([6]; day 18 post immunization, 0.1% ShK-186 for 9 days then 1% for 10 days topically, vehicle animal 3-2 scored 13): 0
- cells in the anterior chamber score of animal 4-8 [6, 11]: 0
- iris vessels and structure score of animal 4-8 [6, 11]: 0
- protein in the anterior chamber (flare) score of animal 4-8 [6, 11]: 0
- pupil score of animal 4-8 [6, 11]: 0
- histopathology ([6]; eyes collected day 19 post immunization, H&E sections, FIG. 4C): reduces
- composite clinical score versus vehicle ([6]; slit lamp, days 11, 13, 15, 18 post induction, topical three times daily 0.1% day 0-8 and 1% ShK-186 day 9-18, N=8 rats/16 eyes): significantly lower
- histopathology score of an eye from a treated animal ([6]; three times daily 0.1% ShK-186 followed by 1% ShK-186 for 10 days, vehicle eye scored 2): 0

Substance: (L-Tyr)-AEEAc-RSCIDTIPKSRCTAFQCKHSMKYRLSFCRKTCGTC-amide [ShK-198]
- clinical score (cells in the anterior chamber; protein in the anterior chamber or flare) ([6]; slit lamp day 13 post induction, 1% ShK-198 topically three times daily versus P6N vehicle, N=10 rats/20 eyes): reduces
